Measurements published in patent publication US7846469B2, “Reversible inhibition of sperm receptor synthesis for contraception” (The Penn State Research Foundation, priority 2006, dated 2010).
Values joined by “and” are separate entries in the source; they are usually repeats but may differ in a detail not shown here. Identical values can stand only once.

Legend:
[1] = tested on: sperm attaching to the oocyte; assay: Sperm count on oocyte membrane of eggs from fed, inseminated ducks; type: in vivo, duck; details: membranes of eggs from nicarbazin-treated ducks
From the text: (§1) [Images were taken at 20× magnification with DAPI fluorescent stain.]
Since there appeared to be a decrease in the amount of ZPC (the primary sperm receptor) present in the duck oocyte membranes, we reasoned that the lack of fertility in any laid eggs should be due to a decline in sperm attaching to the oocyte. FIG. 5 illustrates a pair of sample membranes from both control and nicarbazin treated ducks. Consistent with previous data from our lab (e.g., Barbato et al., 1998) 228±15 sperm/mm2 of oocyte membrane were found in eggs from control ducks, whereas there were 0±15 sperm/mm2 counted on the membranes from nicarbazin-treated ducks.

[2] = tested on: rat ZPC; assay: Western blot for ZPC in rat ovarian tissue after 1 week of nicarbazin feeding; type: in vivo; details: 500 ppm with 5% propylene glycol, band at approx. 50 kDa
From the text: FIG. 7 is a Western Blot (using mouse ZPC monoclonal antibody) of rat ovarian tissue after 1 week of nicarbazin feeding. [mZPC-mab 1:2000; similar results obtained with dilution of 1:5000 and 1:10000.
(§2) In an attempt to increase nicarbazin absorption in a mammalian species we paired nicarbazin with a typical pharmaceutical carrier, 5% propylene glycol (PGC). A 500 ppm dose was fed to 8 adult, female rats for a 7-day period, at which time the rats were killed and the ovaries removed and placed in RNAlater (to preserve protein, RNA and DNA—4 control rats were also sacrificed). Ovarian proteins and mRNA were extracted via standard laboratory protocols. FIG. 7 illustrates the results of a western blot for ZPC, using a murine monoclonal antibody (which cross-reacts with rat ZPC).

[3] = tested on: chicken ZPC; assay: Western blot for chicken ZPC in isolated hen granulosa cells treated with nicarbazin; type: cell-based
Description: FIG. 1 is a Western blot of chicken ZPC proteins.
In a preliminary effort to support this hypothesis, we isolated granulosa cells from primary follicles of a laying hen, and suspended them in a simple cell culture media (1 ml medium (M)199-HEPES supplemented with Hank salts (Gibco-BRL) plus 1 ml Dulbecco modified Eagle medium (DMEM) containing 5% FBS). […] The cells were then disrupted with a sonicator and proteins precipitated and heat solubilized per Barbato et al. (1998). Proteins were concentrated, separated via gel electrophoresis and western blot performed with antibodies to chicken ZPC.

[4] = tested on: FDRL rats; details: high dose (300 mg/kg bw per day phenylurea, 100 mg/kg bw per day pyrimidone), F2a and F3a litters; cited from earlier work
[5] = tested on: fruit fly; assay: Nicarbazin in fruit fly media; type: in vivo; details: ethanol carrier
Description: According to the invention, nicarbazin specifically influences the expression of the zona pellucida 3 gene and protein in vertebrates. It is expected that other homologs of the ZP3 gene will also be negatively affected by nicarbazine. For example, there is an insect homolog of ZP3 that is a structural component of the wing vein. Nicarbazin interferes with the expression of the insect homolog in the same manner as the vertebrate Gene.
In a quick experiment, 3-5% nicarbazin preparation was added to the media (food) in fruit fly vials using ethanol as a carrier (since fruit flies are attracted to ethanol).

[6] = tested on: broiler-breeder hens; details: cited from earlier work
[7] = tested on: mice; assay: Direct feeding experiment with mating pairs of mice; type: in vivo, mouse
Description: The indirect biochemical evidence in the previous section led us to attempt a direct feeding experiment with mice. In this case, mice were fed a 0.5% nicarbazin diet (containing 5% propylene glycol). In addition, 7.5% peanut butter was added to the diet to increase palatability. Ten mating pairs of mice were given access to the diet for 4-5 hrs over a […].

[8] = tested on: ZPC; assay: Western blot of ZPC in oocyte (perivitelline) membrane of laid eggs from fed ducks; type: in vivo, duck
From the text: Drug feeding began in Week 2; making Week 1 and internal control.
A subsample of eggs were collected during each week of the experiment, in order to dissect, extract and identify the ZPC in the oocyte membrane using and anti-ZPC antibody and western blotting technique. FIG. 4 illustrates that at the 500 ppm dose of nicarbazin, ZPC was undetectable after the 1st week of treatment, and remained absent thereafter.

[9] = tested on: inner perivitelline membrane (85% ZPC protein); assay: Electron microscopy of inner perivitelline membrane of mature follicle from fed laying hens; type: in vivo, chicken; details: 250 ppm nicarbazin treated feed
From the text: FIG. 6 is an electron micrograph of a mature follicle from control (C) and nicarbazin treated (T) hens.
As a follow-up experiment, we fed a group of 6 laying hens the 250 ppm nicarbazin treated feed, in an attempt to reduce, but not eliminate, ZPC synthesis. Egg membranes were collected from laid eggs and the most mature follicle dissected from both treated and control hens. The membranes were fixed with osmium tetroxide, sectioned via microtome and viewed with electron microscopy.
This micrograph provides direct, visual confirmation of the previously presented data: that is, that oral nicarbazin dosages reduces the ZP3 content of the oocyte membrane.

[10] = tested on: rat ZPC mRNA; assay: Quantitative rtPCR of ZPC (ZP3) mRNA copy number in rat ovarian tissue; type: in vivo
From the text: as §2
Upon finding a reduction in ZPC-immunoreactive band intensity from ovarian samples obtained from treated animals, we designed PCR primers to identify mRNA for rat ZPC. By applying the quantitative rtPCR technique we were able to estimate the number of copies of the ZPC mRNA that were present in the ovarian tissue samples.

[11] = tested on: Pekin Ducks; assay: Dose-response feeding study in Pekin ducks: egg production and fertility; type: in vivo, duck
From the text: FIG. 3 depicts the fertility of laid eggs obtained from Pekin Ducks fed varying doses of nicarbazin.
as §1
(§3) Our first study determined the dose-response relationship for the effect of nicarbazin in reducing egg production and/or hatchability in ducks.
Since all hens in this experiment were artificially inseminated with sperm from untreated drakes, the effects on subsequent fertility were considered to be due entirely to the effect of nicarbazin on the female ducks. […] Further, upon the withdrawal of nicarbazin-treated feed, even the hens receiving the highest dose of nicarbazin returned to normal egg production and fertility within 10 days.

[12] = DNC concentrations in blood and laid eggs of ducks fed nicarbazin; type: in vivo, duck; details: 31.25-500 ppm in feed
From the text: as §3

## equimolar complex of 1,3-N,N′-bis(4-nitrophenyl)urea and 4,6-dimethyl-2(1H)-pyrimidone [nicarbazin]
[1]
  sperm on oocyte membrane: 0±15 sperm/mm2
[2]
  ZPC immunoreactive band intensity (western blot): reduction in intensity
[3]; 100 mM nicarbazin, granulosa cells
  cell viability: all cells were dead
[3]; granulosa cells from primary follicles of a laying hen, lanes 4-6 (1, 10, 100 mM nicarbazin)
  immunoreactive ZPC (western blot): absence of immunoreactive ZPC
[4]
  litter size: slightly fewer pups
[5]; 3% nicarbazin preparation in media
  fly phenotype: deformed wings and could not fly
[5]; 5% nicarbazin preparation in media
  hatching of fruit fly eggs: did not hatch
[6]; after removal from the feed
  time to return of normal hatchability and egg production after removal of nicarbazin from feed: 7 to 10 days
[6]; higher levels (ca. 700 ppm) in feed
  egg production: eliminated egg production entirely
[6]; lower levels of nicarbazin (<125 ppm) in feed
  hatchability of fertile eggs: significant reduction in hatchability
[7]; mice, 0.5% nicarbazin diet with 5% propylene glycol and 7.5% peanut butter, ten mating pairs, non-treated 90%
  conception rate: 10%
[7]; mice, 0.5% nicarbazin diet, non-treated averaging 6 pups per litter
  pups per litter: 0.2 pups/litter
[7]; previously treated mice mated over the next month
  reversibility after removal of treated feed: conceived normal litters
[7]; pups of treated mice
  teratogenic effects in pups: no sign of teratogenic effects
[8]; 250 ppm dose, over time
  ZPC in oocyte membrane (western blot): clear decline in the intensity of ZPC
[8]; 500 ppm dose, after the 1st week of treatment
  ZPC in oocyte membrane (western blot): undetectable
[9]
  width of the inner perivitelline membrane (electron micrograph): reduction in width
[10]; individual rats fed nicarbazin 500 ppm for 1 week, ovarian tissue
  ZP3 mRNA copy number, mean of triplicate estimate per rat: 0.47 and 0.95 (2×) and 0.75 and 0.50 and 0.85 and 0.77
[10]; rats fed nicarbazin for 1 week, ovarian tissue, control overall mean 1.00, P = 0.03
  ZP3 mRNA copy number, overall mean: 0.71
[10]; rats fed nicarbazin versus control
  reduction in copy number of the ZPC gene: 30%
[11]; 500 ppm nicarbazin ducks, inseminated with 200 million sperm, of 5 eggs set
  fertility of eggs: 20%
[11]; ducks fed 31.25-500 ppm, FIG. 2
  egg production: decline in egg production
[11]; highest dose, after withdrawal of nicarbazin-treated feed
  time to return to normal egg production and fertility after withdrawal: ≤ 10 days
[11]; oral doses 31.25-500 ppm, hens inseminated with sperm from untreated drakes, FIG. 3
  fertility of eggs laid by treated hens: profound effect
[12]
  DNC concentrations in blood and laid eggs versus fed nicarbazin dose: linear dose-concentration relationship
